“And” between values parts separate entries of the source, which are not always exact repeats. Equal entries are not always repeated.
Legend:
EPH-A2 = EPH-A2 (Homo sapiens (Human), UniProt P29317); test: In vitro tyrosine kinase inhibition screening (ELISA); assay type: biochemical; settings: 1 h
Procedure: (§1) 4. In Vitro Screening Test on Tyrosine Kinase Activity Inhibition Screening method: Enzyme-linked immunosorbent assay (ELISA) tyrosine kinase: Enzyme spectrum Time of action: 1 h

ErbB2 = ErbB2 (Homo sapiens (Human), UniProt P04626); test: as above; assay type: biochemical; settings: 1 h
Procedure: as §1

RET = RET (Homo sapiens (Human), UniProt P07949); test: as above; assay type: biochemical; settings: 1 h
Procedure: as §1

[1] = tested on: human gastric cancer SNU-16 subcutaneously transplanted tumor; test: Growth of subcutaneously transplanted tumor in human gastric cancer SNU-16 nude mice; assay type: in vivo
Procedure: The human gastric cancer SNU-16 cell strain was preserved in our laboratory.
S10 groups (30 mg/kg and 10 mg/kg) were orally administered once a day for 21 days; AZD4547 group (10 mg/kg) was administered orally once a day for 21 days; solvent control group was given the same amount of water for injection.

[2] = tested on: human lung cancer NCI-H1581 subcutaneously transplanted tumor; test: Growth of subcutaneously transplanted tumor in human lung cancer NCI-H1581 nude mice
Procedure: The cell strain was inoculated in the right axilla of the nude mice, and the amount of cells inoculated was 5×10^6/mouse to form transplanted tumor, which was directly inoculated and used.
The tumor tissue in the prosperous growth period was cut into 1.5 mm^3, and inoculated subcutaneously in the right axilla of the nude mice under aseptic conditions. The diameter of the transplanted tumor in the nude mice was measured with a vernier caliper, and the animals were randomly grouped when the average volume of tumors was about 150-160 mm^3. […] The solvent control group was given an equal amount of water for injection. The diameter of the transplanted tumor was measured twice a week during the entire experiment, and the body weight of the mice was also weighed. The calculation formula of tumor volume (TV) is: TV=1/2×a×b^2, where a and b respectively represent the length and width of the tumor. The relative tumor volume (RTV) was calculated based on the measured results and the formula was: RTV=Vt/V0, where V0 is the tumor volume measured at grouping and dosing (d0), and Vt is the tumor volume at each measurement.

Chain of ErbB2 (P04626 23-1255, species assumed): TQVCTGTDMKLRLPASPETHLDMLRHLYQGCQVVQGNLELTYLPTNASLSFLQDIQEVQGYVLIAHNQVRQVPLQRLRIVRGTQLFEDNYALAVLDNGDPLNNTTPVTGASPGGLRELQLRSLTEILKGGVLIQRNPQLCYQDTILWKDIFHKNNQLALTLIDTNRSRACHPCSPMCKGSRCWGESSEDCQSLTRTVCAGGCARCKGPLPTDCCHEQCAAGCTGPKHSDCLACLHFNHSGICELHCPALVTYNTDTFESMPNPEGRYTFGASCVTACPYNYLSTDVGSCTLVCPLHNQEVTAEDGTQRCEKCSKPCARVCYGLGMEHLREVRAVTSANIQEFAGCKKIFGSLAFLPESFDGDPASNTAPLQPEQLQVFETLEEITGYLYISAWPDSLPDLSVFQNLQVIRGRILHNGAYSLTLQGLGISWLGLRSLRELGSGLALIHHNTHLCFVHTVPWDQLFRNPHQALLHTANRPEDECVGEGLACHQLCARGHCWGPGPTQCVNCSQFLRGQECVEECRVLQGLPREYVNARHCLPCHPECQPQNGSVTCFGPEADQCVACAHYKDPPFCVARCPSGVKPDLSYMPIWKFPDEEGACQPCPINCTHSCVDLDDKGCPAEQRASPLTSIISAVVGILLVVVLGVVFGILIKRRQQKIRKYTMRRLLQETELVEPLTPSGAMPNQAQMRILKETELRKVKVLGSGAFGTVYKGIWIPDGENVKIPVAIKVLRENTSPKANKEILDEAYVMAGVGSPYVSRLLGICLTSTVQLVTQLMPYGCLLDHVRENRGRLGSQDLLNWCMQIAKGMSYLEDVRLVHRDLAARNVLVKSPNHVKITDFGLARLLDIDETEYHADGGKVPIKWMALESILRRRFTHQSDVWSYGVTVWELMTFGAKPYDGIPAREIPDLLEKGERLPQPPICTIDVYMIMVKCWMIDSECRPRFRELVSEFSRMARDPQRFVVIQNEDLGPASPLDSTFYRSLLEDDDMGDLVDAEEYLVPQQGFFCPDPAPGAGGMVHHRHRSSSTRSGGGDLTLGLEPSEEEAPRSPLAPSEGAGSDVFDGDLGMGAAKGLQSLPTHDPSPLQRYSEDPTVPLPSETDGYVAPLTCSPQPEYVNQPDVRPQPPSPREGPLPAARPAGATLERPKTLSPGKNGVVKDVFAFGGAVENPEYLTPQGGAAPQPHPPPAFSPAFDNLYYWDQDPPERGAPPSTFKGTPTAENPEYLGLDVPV
Chain of RET (P07949 29-1114, species assumed): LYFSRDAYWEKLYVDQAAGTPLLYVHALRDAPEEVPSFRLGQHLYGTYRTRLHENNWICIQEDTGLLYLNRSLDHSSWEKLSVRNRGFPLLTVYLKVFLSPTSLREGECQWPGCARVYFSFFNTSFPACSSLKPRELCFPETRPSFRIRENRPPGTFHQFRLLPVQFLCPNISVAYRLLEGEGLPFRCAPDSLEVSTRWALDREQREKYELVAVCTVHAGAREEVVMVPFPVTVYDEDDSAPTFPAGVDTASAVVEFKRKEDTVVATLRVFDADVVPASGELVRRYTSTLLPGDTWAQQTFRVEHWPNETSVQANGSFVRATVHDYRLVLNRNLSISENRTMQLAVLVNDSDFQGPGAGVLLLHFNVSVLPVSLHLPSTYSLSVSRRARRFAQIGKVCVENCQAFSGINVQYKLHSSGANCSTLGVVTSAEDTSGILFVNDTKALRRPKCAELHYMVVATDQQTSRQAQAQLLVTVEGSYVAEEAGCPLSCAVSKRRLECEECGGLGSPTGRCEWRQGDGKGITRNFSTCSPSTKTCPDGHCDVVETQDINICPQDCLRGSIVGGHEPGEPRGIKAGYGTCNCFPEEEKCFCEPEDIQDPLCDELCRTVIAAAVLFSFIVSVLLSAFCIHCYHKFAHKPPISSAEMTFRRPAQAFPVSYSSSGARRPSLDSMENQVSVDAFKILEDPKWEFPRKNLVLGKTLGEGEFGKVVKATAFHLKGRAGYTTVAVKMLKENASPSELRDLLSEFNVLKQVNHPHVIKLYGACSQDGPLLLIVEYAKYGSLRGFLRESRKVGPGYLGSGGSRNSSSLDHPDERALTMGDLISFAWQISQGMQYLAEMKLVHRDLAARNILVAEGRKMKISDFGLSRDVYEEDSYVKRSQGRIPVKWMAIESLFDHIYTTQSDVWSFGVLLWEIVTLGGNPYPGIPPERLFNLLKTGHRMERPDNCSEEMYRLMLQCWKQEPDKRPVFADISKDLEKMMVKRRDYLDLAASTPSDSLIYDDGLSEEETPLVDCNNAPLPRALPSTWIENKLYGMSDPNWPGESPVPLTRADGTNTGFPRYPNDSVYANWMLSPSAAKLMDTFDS
Chain of EPH-A2 (P29317 24-976): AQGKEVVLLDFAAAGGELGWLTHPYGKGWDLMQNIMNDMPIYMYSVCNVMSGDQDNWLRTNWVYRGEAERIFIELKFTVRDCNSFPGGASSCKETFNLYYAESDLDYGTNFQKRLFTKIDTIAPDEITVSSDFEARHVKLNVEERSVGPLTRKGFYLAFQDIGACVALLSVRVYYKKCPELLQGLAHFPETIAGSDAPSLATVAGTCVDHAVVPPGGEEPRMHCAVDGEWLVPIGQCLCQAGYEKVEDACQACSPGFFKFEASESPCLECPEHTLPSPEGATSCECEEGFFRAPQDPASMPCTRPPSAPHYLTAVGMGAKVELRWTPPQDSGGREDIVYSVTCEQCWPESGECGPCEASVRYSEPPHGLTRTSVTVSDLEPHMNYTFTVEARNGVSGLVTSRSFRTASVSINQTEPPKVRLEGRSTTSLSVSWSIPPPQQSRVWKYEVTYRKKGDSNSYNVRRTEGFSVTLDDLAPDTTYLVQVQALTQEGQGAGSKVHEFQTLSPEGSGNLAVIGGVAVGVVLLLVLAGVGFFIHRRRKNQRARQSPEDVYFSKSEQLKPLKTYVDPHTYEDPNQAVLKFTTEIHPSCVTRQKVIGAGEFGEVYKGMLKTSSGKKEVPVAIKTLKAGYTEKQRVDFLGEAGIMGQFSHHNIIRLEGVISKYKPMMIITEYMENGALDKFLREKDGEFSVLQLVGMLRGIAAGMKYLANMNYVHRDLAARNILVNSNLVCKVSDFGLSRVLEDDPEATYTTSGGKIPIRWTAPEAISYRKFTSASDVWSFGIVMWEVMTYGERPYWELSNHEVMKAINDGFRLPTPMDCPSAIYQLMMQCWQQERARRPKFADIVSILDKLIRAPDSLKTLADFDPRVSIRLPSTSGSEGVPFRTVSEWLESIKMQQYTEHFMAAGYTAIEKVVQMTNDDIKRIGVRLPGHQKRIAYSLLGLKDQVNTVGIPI

## CNC(=O)c1cccc2cc(Oc3ccnc(NC(=O)c4ccc(N5C[C@@H](C)N[C@@H](C)C5)cc4)c3)ccc12 [Compound S10]
EPH-A2; 10 nM
  Inhibition ratio (%) EPH-A2: 4.2%
EPH-A2; 1000 nM
  Inhibition ratio (%) EPH-A2: 7.7%
ErbB2; 10 nM
  Inhibition ratio (%) ErbB2: 17.4%
ErbB2; 1000 nM
  Inhibition ratio (%) ErbB2: 22.2%
RET; 10 nM
  Inhibition ratio (%) RET: 13.2%
RET; 1000 nM
  Inhibition ratio (%) RET: 90.5%
[1]; 10 mg/kg po qd/21, d0
  Body weight (g) d0: 19.9 g
  TV (mm^3, mean ± SD) d0: 106 ± 33 mm^3
[1]; 10 mg/kg po qd/21, d21
  Body weight (g) d21: 21.4 g
  RTV (mean ± SD): 3.48 ± 2.29
  T/C (%): 25.35% and 25%
  TV (mm^3, mean ± SD) d21: 322 ± 107 mm^3
[1]; 30 mg/kg po once a day for 21 days
  Body weight change, condition and mortality of mice during the experiment: average weight of mice in the S10 group (30 mg/kg) was decreased, but the mice were still in good condition and no mice died
[1]; 30 mg/kg po qd/21, d0
  Body weight (g) d0: 21.2 g
  TV (mm^3, mean ± SD) d0: 106 ± 22 mm^3
[1]; 30 mg/kg po qd/21, d21
  Body weight (g) d21: 17.0 g
  RTV (mean ± SD): 1.19 ± 0.38
  T/C (%): 8.67% and 9%
  TV (mm^3, mean ± SD) d21: 125 ± 47 mm^3
[2]; 2.5 mg/kg po qd/14, d0
  Body weight (g) d0: 19.8 g
  TV (mm^3, mean SD) d0: 157 ± 43 mm^3
[2]; 2.5 mg/kg po qd/14, d14
  Body weight (g) d14: 21.8 g
  RTV (mean SD): 8.36 ± 2.17
  T/C (%): 40.19% and 40%
  TV (mm^3, mean SD) d14: 1287 ± 412 mm^3
[2]; 5 mg/kg po qd/14, d0
  Body weight (g) d0: 19.0 g
  TV (mm^3, mean SD) d0: 154 ± 53 mm^3
[2]; 5 mg/kg po qd/14, d14
  Body weight (g) d14: 21.5 g
  RTV (mean SD): 3.57 ± 0.91
  T/C (%): 17.18% and 17%
  TV (mm^3, mean SD) d14: 524 ± 122 mm^3
[2]; 10 mg/kg po qd/14, d0
  Body weight (g) d0: 19.9 g
  TV (mm^3, mean SD) d0: 155 ± 45 mm^3
[2]; 10 mg/kg po qd/14, d14
  Body weight (g) d14: 23.0 g
  RTV (mean SD): 2.09 ± 0.77
  T/C (%): 10.03% and 10%
  TV (mm^3, mean SD) d14: 338 ± 223 mm^3
[2]; 10, 5 and 2.5 mg/kg po once a day for two weeks
  Condition and mortality of animals during the experiment: the animals in each group were in good condition and there was no mice died

Source: patent US11834432B2, “Substituted amino six-membered nitric heterocyclic ring compound and preparation and use thereof” (SHANGHAI INSTITUTE OF MATERIA MEDICA, CHINESE ACADEMY OF …, priority 2016, dated 2023)
